Drawing on patent US6399782B1, “Benzimidazole inhibitors of fructose 1,6-bisphosphatase” (Metabasis Therapeutics, Inc., priority 1997, dated 2002), this text covers melting point for 28 compounds.

The melting point is the temperature of the solid-liquid transition. On to `CC(C)Cn1c(-c2ccc(P(=O)(O)O)o2)nc2c(N)c(F)cc(-c3ccc(Cl)cc3)c21` [Compound 12.69, 4-Amino-7-p-chlorophenyl-5-fluoro-1-isobutyl-2-(2-phosphono-5-furanyl)benzimidazole], for which the melting point is 235 to 236 °C (dec.).
`CC(C)Cn1c(-c2ccc(P(=O)(O)O)o2)nc2c(Br)cc(Br)cc21` [Compound 13.43, 4,6-Dibromo-1-isobutyl-2-(2-phosphono-5-furanyl)benzimidazole] came in with a melting point of 150 to 210 °C.
In the case of `CC(C)Cn1c(-c2ccc(P(=O)(O)O)o2)nc2c(N)c(F)cc(-c3ccccc3)c21` [Compound 12.67, 4-Amino-7-phenyl-5-fluoro-1-isobutyl-2-(2-phosphono-5-furanyl)benzimidazole], the melting point was 240 to 241 °C (dec.).
As for `CC(C)Cn1c(-c2ccc(P(=O)(O)O)o2)nc2c(N)c(F)cc(CCCCCl)c21` [Compound 12.83, 4-Amino-5-fluoro-7-(4-chlorobutyl)-1-isobutyl-2-(2-phosphono-5-furanyl)benzimidazole], the melting point is 210 to 220 °C (dec.).
The compound `Nc1c(Br)c(Cl)c(Cl)c2nc(-c3ccc(P(=O)(O)O)o3)[nH]c12` [Compound 12.58, 4-Amino-5-bromo-6,7-dichloro-2-(2-phosphono-5-furanyl)benzimidazole] registered a melting point of 224 to 225 °C.
In turn, `CC(C)Cn1c(-c2ccc(P(=O)(O)O)o2)nc2c(F)c(F)c(F)cc21` [Compound 12.78, 4,5,6-Trifluoro-1-isobutyl-2-(2-phosphono-5-furanyl)benzimidazole] returned a melting point of 155 to 158 °C.
The value for `CC(C)Cn1c(-c2ccc(P(=O)(O)O)o2)nc2cc(Cl)ccc21` [Compound 13.16, 5-Chloro-1-isobutyl-2-(2-phosphono-5-furanyl)benzimidazole] was 238 °C; that for `CC(C)COc1cccc2c1nc(-c1ccc(P(=O)(O)O)o1)n2CC(C)C` [Compound 13.20, 1-Isobutyl-4-isobutyloxy-2-(2-phosphono-5-furanyl)benzimidazole] was 350 °C.
With `CC(C)Cn1c(-c2ccc(P(=O)(O)O)o2)nc2cc(F)c(F)c(F)c21` [Compound 12.77, 5,6,7-Trifluoro-1-isobutyl-2-(2-phosphono-5-furanyl)benzimidazole], the melting point is 250 to 260 °C.
Compound `C=Cc1cc(F)c(N)c2nc(-c3ccc(P(=O)(O)O)o3)n(CC(C)C)c12` [Compound 12.70, 4-Amino-7-vinyl-5-fluoro-1-isobutyl-2-(2-phosphono-5-furanyl)benzimidazole] showed a melting point of 238 to 242 °C.
The result for `CC(C)Cn1c(-c2ccc(P(=O)(O)O)o2)nc2c(N)c(F)cc(-c3ccc(F)cc3)c21` [Compound 12.68, 4-Amino-7-p-fluorophenyl-5-fluoro-1-isobutyl-2-(2-phosphono5-furanyl)benzimidazole] reads 239 to 240 °C (dec.).
`O=P(O)(O)c1ccc(-c2nc3ccccc3n2-c2ccccc2)o1` [Compound 13.12, 1-Phenyl-2-(2-phosphono-5-furanyl)benzimidazole] displayed a melting point of 196 to 200 °C.
The compound `CCc1c(Cl)c(F)cc2[nH]c(-c3ccc(P(=O)(O)O)o3)nc12` [Compound 13.80, 5-Fluoro-6-chloro-7-ethyl-2-(2-phosphono-5-furanyl)benzimidazole] came in with a melting point of 165 to 190 °C.
The value for `CC(C)Cn1c(-c2ccc(P(=O)(O)O)o2)nc2c(Cl)cc(Cl)cc21` [Compound 13.39, 4,6-Dichloro-1-isobutyl-2-(2-phosphono-5-furanyl)benzimidazole] was 155 to 175 °C.
The result for `O=P(O)(O)c1ccc(-c2nc3cc(Cl)c(Cl)cc3n2CC2CC2)o1` [Compound 13.45, 5,6-Dichloro-1-cyclopropylmethyl-2-(2-phosphono-5-furanyl)benzimidazole] reads 180 to 210 °C.
For the compound `COc1cccc(-n2c(-c3ccc(P(=O)(O)O)o3)nc3ccc(Cl)cc32)c1` [Compound 13.65, 6-Chloro-1-(3-methoxyphenyl)-2-(2-phosphono-5-furanyl)benzimidazole], the melting point lay within 184 to 185 °C.
The value for `Cc1c(C)c(C)c2c(nc(-c3ccc(P(=O)(O)O)o3)n2CC2CC2)c1C` (hydrate or solvate) [Compound 13.88, 1-Cyclopropylmethyl-4,5,6,7-tetramethyl-2-(2-phosphono-5-furanyl)benzimidazole] was 207 to 208 °C.
Turning to `Cc1cc(C)c2c(c1)nc(-c1ccc(P(=O)(O)O)o1)n2CC(C)C` (hydrate or solvate) [Compound 13.87, 1-Isobutyl-5,7-dimethyl-2-(2-phosphono-5-furanyl)benzimidazole], the melting point was in the range of 196 to 200 °C.
Compound `O=C(O)c1ccccc1-n1c(-c2ccc(P(=O)(O)O)o2)nc2cc(Cl)ccc21` [Compound 13.13, 1-(2-Carboxyphenyl)-2-(2-phosphono-5-furanyl)-5-chloro benzimidazole] displayed a melting point of 220 to 224 °C.
The value for `CC(C)Cn1c(-c2ccc(P(=O)(O)O)o2)nc2ccc(F)cc21` [Compound 13.27, 6-Fluoro-1-isobutyl-2-(2-phosphono-5-furanyl)benzimidazole] was 202 to 205 °C; that for `Cl.NCCCCn1c(-c2ccc(P(=O)(O)O)o2)nc2cc(Cl)ccc21` (hydrate or solvate) was 236 to 240 °C (dec.).
With `CC(C)Cn1c(-c2ccc(P(=O)(O)O)o2)nc2ccccc21` [Compound 13.2, 1-Isobutyl-2-(2-phosphono-5-furanyl)benzimidazole], the melting point fell in the range of 200 to 203 °C.
In the case of `NCCCCn1c(-c2ccc(P(=O)(O)O)o2)nc2ccc(Cl)cc21` (hydrate or solvate) [Compound 13.95, 1-(4-Aminobutyl)-6-chloro-2-(2-phosphono-5-furanyl)benzimidazole], the melting point was 250 to 252 °C (dec.).
Consider `Cc1c(Br)cc2c(nc(-c3ccc(P(=O)(O)O)o3)n2CC(C)C)c1C` [Compound 13.53, 4,5-Dimethyl-6-bromo-1-isobutyl-2-(2-phosphono-5-furanyl)benzimidazole], for which the melting point fell in the range of 205 to 209 °C.
Consider `CCCc1cc(F)c(N)c2nc(-c3ccc(P(=O)(O)O)o3)n(CC(C)C)c12` [Compound 12.81, 4-Amino-5-fluoro-7-n-propyl-1-isobutyl-2-(2-phosphono-5-furanyl)benzimidazole], for which the melting point was 220 to 230 °C (dec.).
The result for `CC(C)Cn1c(-c2ccc(P(=O)(O)O)o2)nc2cc(F)c(N)c(Br)c21` [Compound 13.69, 1-Isobutyl-5-fluoro-6-amino-7-bromo-2-(2-phosphono-5-furanyl)benzimidazole] reads 208 to 211 °C.
In the case of `Cc1c(C)c(C)c2[nH]c(-c3ccc(P(=O)(O)O)o3)nc2c1C` [Compound 13.82, 4,5,6,7-Tetramethyl-2-(2-phosphono-5-furanyl)benzimidazole], the melting point was 202 to 206 °C.
The value for `CCc1cc(F)c(N)c2nc(-c3ccc(P(=O)(O)O)o3)n(CC3CC3)c12` [Compound 12.75, 4-Amino-7-ethyl-5-fluoro-1-cyclopropylmethyl-2-(2-phosphono-5-furanyl)benzimidazole] was 178 to 185 °C.
